Results published in patent US6569638B1, “Method for screening compounds for the treatment of neoplasia” (Cell Pathways, Inc, priority 2000, dated 2003).

How the values were obtained:
[1] = Safety evaluation in exisulind clinical trials; type: in vivo
Method: In these exisulind trials and several others involving the drug in other indications, safety was evaluated by monitoring adverse events (AEs), clinical laboratory tests (hematology, serum chemistry, and urinalysis), vital signs (blood pressure, pulse rate, respiratory rate, temperature, and weight), physical examination, and upper endoscopy.

[2] = system: adenomatous polyposis coli polyps; test: Clinical prevention trial of polyp formation in APC patients; type: in vivo, human
Source text: The first clinical trial involved patients with APC using exisulind. In that study, each patient had already had his/her colon removed, except for a small section of colon adjacent the rectum (where the small intestine was attached) to preserve rectal function. However, such a patient commonly forms polyps in the small remaining colonic section, which polyps require periodic removal (e.g., by electrocautery).
That trial where exisulind was selected was a prevention trial designed to evaluate the anti-neoplastic characteristics of the drug by comparing the cumulative number of new polyps formed over twelve months by the drug and placebo groups. Eligible patients were those who form between 9 and 44 polyps per year. Patients were fully ablated (had all polyps removed) at the start of the study, at the end of 6 months and at the end of 12 months. The study enrolled thirty-four eligible patients. […] Based on the median number of polyps produced in the first six months of the study, patients treated with exisulind developed approximately one-third the number of polyps as patients treated with placebo (median values 9 polyps/year and 26 polyps/year, respectively; p=0.013). […]

CC1=C(CC(=O)O)c2cc(F)ccc2/C1=C\c1ccc(S(C)(=O)=O)cc1 [exisulind, 5-fluoro-2-methyl-1-(p-methylsulfonylbenzylidene)-3-indenylacetic acid]
safety findings in clinical trials ([1]; human, in vivo): No outstanding safety issues have been demonstrated
maximum tolerated dose (MTD) ([1]; patients with intact colons): 400 mg
maximum tolerated dose (MTD) ([1]; patients with subtotal colectomy): 600 mg
maximum tolerated dose (MTD) ([1]; pediatric patients): 350 mg
median number of polyps ([2]; entire 12 months of the study): 18 polyps/year
median number of polyps ([2]; first six months of the study): 9 polyps/year
